{"source": "ChEMBL document CHEMBL1201861", "about": "“Genomics of Drug Sensitity in Cancer screening data, Wellcome Trust Sanger Institute”"}
{"test_system": "CP50-MEL-B", "assay": "cells", "type": "functional, cell-based, Homo sapiens", "conditions": "Homo sapiens, CP50-MEL-B", "units": {"IC50": "mM"}, "description": "SANGER: Inhibition of human CP50-MEL-B cell growth in a cell viability assay."}
{"smiles": "CN(C)C(=N)NC(=N)N", "note": "[METFORMIN]", "IC50": "> 20"}
{"test_system": "DBTRG-05MG", "assay": "cells", "type": "functional, cell-based, Homo sapiens", "conditions": "Homo sapiens, DBTRG-05MG", "units": {"IC50": "mM"}, "description": "SANGER: Inhibition of human DBTRG-05MG cell growth in a cell viability assay."}
{"smiles": "CN(C)C(=N)NC(=N)N", "note": "[METFORMIN]", "IC50": 7.27}
{"test_system": "DOK", "assay": "cells", "type": "functional, cell-based, Homo sapiens", "conditions": "Homo sapiens, DOK", "units": {"IC50": "mM"}, "description": "SANGER: Inhibition of human DOK cell growth in a cell viability assay."}
{"smiles": "CN(C)C(=N)NC(=N)N", "note": "[METFORMIN]", "IC50": 4.25}
{"test_system": "FaDu", "assay": "cells", "type": "functional, cell-based, Homo sapiens", "conditions": "Homo sapiens, FaDu", "units": {"IC50": "mM"}, "description": "SANGER: Inhibition of human FADU cell growth in a cell viability assay."}
{"smiles": "CN(C)C(=N)NC(=N)N", "note": "[METFORMIN]", "IC50": 11.2}
{"test_system": "H-EMC-SS", "assay": "cells", "type": "functional, cell-based, Homo sapiens", "conditions": "Homo sapiens, H-EMC-SS", "units": {"IC50": "mM"}, "description": "SANGER: Inhibition of human H-EMC-SS cell growth in a cell viability assay."}
{"smiles": "CN(C)C(=N)NC(=N)N", "note": "[METFORMIN]", "IC50": "> 20"}
{"test_system": "HOS", "assay": "cells", "type": "functional, cell-based, Homo sapiens", "conditions": "Homo sapiens, HOS", "units": {"IC50": "mM"}, "description": "SANGER: Inhibition of human HOS cell growth in a cell viability assay."}
{"smiles": "CN(C)C(=N)NC(=N)N", "note": "[METFORMIN]", "IC50": "> 20"}
{"test_system": "HSC-3", "assay": "cells", "type": "functional, cell-based, Homo sapiens", "conditions": "Homo sapiens, HSC-3", "units": {"IC50": "mM"}, "description": "SANGER: Inhibition of human HSC-3 cell growth in a cell viability assay."}
{"smiles": "CN(C)C(=N)NC(=N)N", "note": "[METFORMIN]", "IC50": "> 20"}
{"test_system": "HT-1080", "assay": "cells", "type": "functional, cell-based, Homo sapiens", "conditions": "Homo sapiens, HT-1080", "units": {"IC50": "mM"}, "description": "SANGER: Inhibition of human HT-1080 cell growth in a cell viability assay."}
{"smiles": "CN(C)C(=N)NC(=N)N", "note": "[METFORMIN]", "IC50": "> 20"}
{"test_system": "HT-3", "assay": "cells", "type": "functional, cell-based, Homo sapiens", "conditions": "Homo sapiens, HT-3", "units": {"IC50": "mM"}, "description": "SANGER: Inhibition of human HT-3 cell growth in a cell viability assay."}
{"smiles": "CN(C)C(=N)NC(=N)N", "note": "[METFORMIN]", "IC50": 8.16}
{"test_system": "HTC-C3", "assay": "cells", "type": "functional, cell-based, Homo sapiens", "conditions": "Homo sapiens, HTC-C3", "units": {"IC50": "mM"}, "description": "SANGER: Inhibition of human HTC-C3 cell growth in a cell viability assay."}
{"smiles": "CN(C)C(=N)NC(=N)N", "note": "[METFORMIN]", "IC50": "> 20"}
{"test_system": "J82", "assay": "cells", "type": "functional, cell-based, Homo sapiens", "conditions": "Homo sapiens, J82", "units": {"IC50": "mM"}, "description": "SANGER: Inhibition of human J82 cell growth in a cell viability assay."}
{"smiles": "CN(C)C(=N)NC(=N)N", "note": "[METFORMIN]", "IC50": 12.9}
{"test_system": "MC-IXC", "assay": "cells", "type": "functional, cell-based, Homo sapiens", "conditions": "Homo sapiens, MC-IXC", "units": {"IC50": "mM"}, "description": "SANGER: Inhibition of human MC-IXC cell growth in a cell viability assay."}
{"smiles": "CN(C)C(=N)NC(=N)N", "note": "[METFORMIN]", "IC50": 7.89}
{"test_system": "MHH-ES-1", "assay": "cells", "type": "functional, cell-based, Homo sapiens", "conditions": "Homo sapiens, MHH-ES-1", "units": {"IC50": "mM"}, "description": "SANGER: Inhibition of human MHH-ES-1 cell growth in a cell viability assay."}
{"smiles": "CN(C)C(=N)NC(=N)N", "note": "[METFORMIN]", "IC50": "> 20"}
{"test_system": "NCI-H1563", "assay": "cells", "type": "functional, cell-based, Homo sapiens", "conditions": "Homo sapiens, NCI-H1563", "units": {"IC50": "mM"}, "description": "SANGER: Inhibition of human NCI-H1563 cell growth in a cell viability assay."}
{"smiles": "CN(C)C(=N)NC(=N)N", "note": "[METFORMIN]", "IC50": 8.61}
{"test_system": "NCI-H2029", "assay": "cells", "type": "functional, cell-based, Homo sapiens", "conditions": "Homo sapiens, NCI-H2029", "units": {"IC50": "mM"}, "description": "SANGER: Inhibition of human NCI-H2029 cell growth in a cell viability assay."}
{"smiles": "CN(C)C(=N)NC(=N)N", "note": "[METFORMIN]", "IC50": 14.8}
{"test_system": "NCI-H292", "assay": "cells", "type": "functional, cell-based, Homo sapiens", "conditions": "Homo sapiens, NCI-H292", "units": {"IC50": "mM"}, "description": "SANGER: Inhibition of human NCI-H292 cell growth in a cell viability assay."}
{"smiles": "CN(C)C(=N)NC(=N)N", "note": "[METFORMIN]", "IC50": 5.87}
{"test_system": "OC-314", "assay": "cells", "type": "functional, cell-based, Homo sapiens", "conditions": "Homo sapiens, OC-314", "units": {"IC50": "mM"}, "description": "SANGER: Inhibition of human OC-314 cell growth in a cell viability assay."}
{"smiles": "CN(C)C(=N)NC(=N)N", "note": "[METFORMIN]", "IC50": "> 20"}
{"test_system": "PANC-08-13", "assay": "cells", "type": "functional, cell-based, Homo sapiens", "conditions": "Homo sapiens, PANC-08-13", "units": {"IC50": "mM"}, "description": "SANGER: Inhibition of human PANC-08-13 cell growth in a cell viability assay."}
{"smiles": "CN(C)C(=N)NC(=N)N", "note": "[METFORMIN]", "IC50": "> 20"}
{"test_system": "RT-112", "assay": "cells", "type": "functional, cell-based, Homo sapiens", "conditions": "Homo sapiens, RT-112", "units": {"IC50": "mM"}, "description": "SANGER: Inhibition of human RT-112 cell growth in a cell viability assay."}
{"smiles": "CN(C)C(=N)NC(=N)N", "note": "[METFORMIN]", "IC50": "> 20"}
{"test_system": "SNU-387", "assay": "cells", "type": "functional, cell-based, Homo sapiens", "conditions": "Homo sapiens, SNU-387", "units": {"IC50": "mM"}, "description": "SANGER: Inhibition of human SNU-387 cell growth in a cell viability assay."}
{"smiles": "CN(C)C(=N)NC(=N)N", "note": "[METFORMIN]", "IC50": "> 20"}
{"test_system": "SW1783", "assay": "cells", "type": "functional, cell-based, Homo sapiens", "conditions": "Homo sapiens, SW1783", "units": {"IC50": "mM"}, "description": "SANGER: Inhibition of human SW1783 cell growth in a cell viability assay."}
{"smiles": "CN(C)C(=N)NC(=N)N", "note": "[METFORMIN]", "IC50": "> 20"}
{"test_system": "SW837", "assay": "cells", "type": "functional, cell-based, Homo sapiens", "conditions": "Homo sapiens, SW837", "units": {"IC50": "mM"}, "description": "SANGER: Inhibition of human SW837 cell growth in a cell viability assay."}
{"smiles": "CN(C)C(=N)NC(=N)N", "note": "[METFORMIN]", "IC50": "> 20"}
{"test_system": "786-0", "assay": "cells", "type": "functional, cell-based, Homo sapiens", "conditions": "Homo sapiens", "units": {"IC50": "mM"}, "description": "SANGER: Inhibition of human 786-0 cell growth in a cell viability assay."}
{"smiles": "CN(C)C(=N)NC(=N)N", "note": "[METFORMIN]", "IC50": "> 20"}
{"test_system": "A2058", "assay": "cells", "type": "functional, cell-based, Homo sapiens", "conditions": "Homo sapiens, A2058", "units": {"IC50": "mM"}, "description": "SANGER: Inhibition of human A2058 cell growth in a cell viability assay."}
{"smiles": "CN(C)C(=N)NC(=N)N", "note": "[METFORMIN]", "IC50": "> 20"}
{"test_system": "A-431", "assay": "cells", "type": "functional, cell-based, Homo sapiens", "conditions": "Homo sapiens, A-431", "units": {"IC50": "mM"}, "description": "SANGER: Inhibition of human A431 cell growth in a cell viability assay."}
{"smiles": "CN(C)C(=N)NC(=N)N", "note": "[METFORMIN]", "IC50": "> 20"}
{"test_system": "ABC-1", "assay": "cells", "type": "functional, cell-based, Homo sapiens", "conditions": "Homo sapiens, ABC-1", "units": {"IC50": "mM"}, "description": "SANGER: Inhibition of human ABC-1 cell growth in a cell viability assay."}
{"smiles": "CN(C)C(=N)NC(=N)N", "note": "[METFORMIN]", "IC50": "> 20"}
{"test_system": "AN3-CA", "assay": "cells", "type": "functional, cell-based, Homo sapiens", "conditions": "Homo sapiens, AN3-CA", "units": {"IC50": "mM"}, "description": "SANGER: Inhibition of human AN3-CA cell growth in a cell viability assay."}
{"smiles": "CN(C)C(=N)NC(=N)N", "note": "[METFORMIN]", "IC50": "> 20"}
{"test_system": "BCPAP", "assay": "cells", "type": "functional, cell-based, Homo sapiens", "conditions": "Homo sapiens, BCPAP", "units": {"IC50": "mM"}, "description": "SANGER: Inhibition of human BCPAP cell growth in a cell viability assay."}
{"smiles": "CN(C)C(=N)NC(=N)N", "note": "[METFORMIN]", "IC50": "> 20"}
{"test_system": "BHY", "assay": "cells", "type": "functional, cell-based, Homo sapiens", "conditions": "Homo sapiens, BHY", "units": {"IC50": "mM"}, "description": "SANGER: Inhibition of human BHY cell growth in a cell viability assay."}
{"smiles": "CN(C)C(=N)NC(=N)N", "note": "[METFORMIN]", "IC50": "> 20"}
{"test_system": "BT-20", "assay": "cells", "type": "functional, cell-based, Homo sapiens", "conditions": "Homo sapiens, BT-20", "units": {"IC50": "mM"}, "description": "SANGER: Inhibition of human BT-20 cell growth in a cell viability assay."}
{"smiles": "CN(C)C(=N)NC(=N)N", "note": "[METFORMIN]", "IC50": 15.3}
{"test_system": "C-33-A", "assay": "cells", "type": "functional, cell-based, Homo sapiens", "conditions": "Homo sapiens, C-33-A", "units": {"IC50": "mM"}, "description": "SANGER: Inhibition of human C-33-A cell growth in a cell viability assay."}
{"smiles": "CN(C)C(=N)NC(=N)N", "note": "[METFORMIN]", "IC50": 9.4}
{"test_system": "UACC-893", "assay": "cells", "type": "functional, cell-based, Homo sapiens", "conditions": "Homo sapiens, UACC-893", "units": {"IC50": "mM"}, "description": "SANGER: Inhibition of human UACC-893 cell growth in a cell viability assay."}
{"smiles": "CN(C)C(=N)NC(=N)N", "note": "[METFORMIN]", "IC50": 9.97}
{"test_system": "CHL-1", "assay": "cells", "type": "functional, cell-based, Homo sapiens", "conditions": "Homo sapiens, CHL-1", "units": {"IC50": "mM"}, "description": "SANGER: Inhibition of human CHL-1 cell growth in a cell viability assay."}
{"smiles": "CN(C)C(=N)NC(=N)N", "note": "[METFORMIN]", "IC50": 19.5}
{"test_system": "COLO-679", "assay": "cells", "type": "functional, cell-based, Homo sapiens", "conditions": "Homo sapiens, COLO-679", "units": {"IC50": "mM"}, "description": "SANGER: Inhibition of human COLO-679 cell growth in a cell viability assay."}
{"smiles": "CN(C)C(=N)NC(=N)N", "note": "[METFORMIN]", "IC50": "> 20"}
